Results from patent US12319655B2, “RAF kinase inhibitors and methods of use thereof” (Deciphera Pharmaceuticals, LLC, priority 2021, dated 2025).

Key:
Miapaca-2 cells = test: MiaPaca-2 Cell Proliferation Assay (1); assay type: cell-based; details: Homo sapiens, MIA PaCa-2, single agent, read-out: MiaPaca2 (1) IC50
Procedure: MiaPaca-2 Cell Proliferation Assay (1)
Miapaca-2 cells (catalog #CRL-1420) are obtained from the American Type Culture Collect (ATTC, Manassas, VA). Briefly, cells were grown in DMEM supplemented with 10% characterized fetal bovine serum (Invitrogen, Carlsbad, CA), 2.5% New Zealand sourced horse serum and 1% Penicillin/Streptomycin/L-Glutamine at 37° C., 5% CO2, and 95% humidity. Cells are expanded until reaching 70-95% confluency at which point they are sub-cultured or harvested for assay use. A serial dilution of test compound is dispensed into a 96-well black clear bottom plate in triplicate. Three thousand cells are added per well in 200 μL complete growth medium in the 96-well plate. Plates are incubated for 67-72 h at 37° C., 5% CO2, and 95% humidity. At the end of the incubation, 40 μL of a 440 μM solution of resazurin (Sigma, St. Louis, MO) in PBS is added to each well of the plate and plates are incubated for an additional 5-6 h at 37° C., 5% CO2, and 95% humidity. Plates are read on a Synergy2 or equivalent reader (Biotek, Winooski VT) using an excitation of 540 nm and an emission of 600 nm. Data is analyzed using Prism software (GraphPad, San Diego, CA) to calculate IC50 values.

WM3928 cells = test: WM3928 Cell Proliferation Assay (1); assay type: cell-based
Procedure: WM3928 Cell Proliferation Assay (1)
WM3928 cells (#WM3928-01-0001) are obtained from Rockland Immunochemicals Inc (Gilbertsville, PA). Briefly, cells were grown in MCDB 153 medium (Sigma, #M7403, St. Louis, MO) supplemented with 20% Leibovitz's L-15 (ThermoFisher #11415-064, Waltham, MA), 2% heat inactivated fetal bovine serum (ThermoFisher, #A3840001, Waltham, MA), 5 μg/mL Insulin (Bovine Pancreas) (Sigma, #I0516, St. Louis, MO), 1.68 mM Calcium Chloride (Sigma, #C-34006, St. Louis, MO) and 1% Penicillin/Streptomycin/L-Glutamine (ThermoFisher #10378016, Waltham, MA) at 37° C., 5% CO2, and 95% humidity. Cells are expanded until reaching 70-95% confluency at which point they are subcultured or harvested for assay use. A serial dilution of test compound is dispensed into a 96-well black clear bottom plate in triplicate. Three thousand cells are added per well in 200 μL complete growth medium in the 96-well plate. Plates are incubated for 67-72 hours at 37° C., 5% CO2, and 95% humidity. At the end of the incubation, 40 μL of a 440 μM solution of resazurin (Sigma, #199303, St. Louis, MO) in PBS is added to each well of the plate and plates are incubated for an additional 6-7 hours at 37° C., 5% CO2, and 95% humidity. Plates are read on a Synergy2 or equivalent reader (Biotek, Winooski VT) using an excitation of 540 nm and an emission of 600 nm. Data is analyzed using Prism software (GraphPad, San Diego, CA) to calculate IC50 values.

[1] = molecular target: B-Raf (V600E) (SEQ. ID NO: 4) kinase (Homo sapiens (Human), UniProt P15056, V600E); test: Biochemical Assay for B-Raf (V600E) (1); details: Table J, BRAF V600E, assay version (1); read-out: BRAF VE (1) IC50
Method in brief: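 Serially diluted compounds tested against 0.03 nM enzyme with 30.1 nM MEK substrate and 1 mM ATP (Tris pH 7.5, 15 mM MgCl2), ATP use coupled to NADH loss via PK/LDH. A340 monitored continuously 6 h, 30 °C; IC50 fitted (four-parameter) from the 3–4 h rate versus no-compound and known-inhibitor controls.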

B-Raf (V600E) (SEQ. ID NO: 4) kinase, sequence (P15056 416-766 V600E): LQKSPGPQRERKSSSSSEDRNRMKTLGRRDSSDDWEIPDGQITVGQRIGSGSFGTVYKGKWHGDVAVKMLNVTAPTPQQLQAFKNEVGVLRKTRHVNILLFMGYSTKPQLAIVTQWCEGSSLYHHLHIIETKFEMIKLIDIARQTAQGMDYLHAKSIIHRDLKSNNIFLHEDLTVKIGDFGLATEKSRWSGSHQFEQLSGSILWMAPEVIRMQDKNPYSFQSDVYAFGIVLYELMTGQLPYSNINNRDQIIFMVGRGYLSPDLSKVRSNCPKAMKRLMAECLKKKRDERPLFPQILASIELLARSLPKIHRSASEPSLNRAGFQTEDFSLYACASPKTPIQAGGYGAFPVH

Row | Compound | IC50 (Miapaca-2 cells) | IC50 [1] | IC50 (WM3928 cells)
1 | CC(=O)Nc1cc(-c2cc(-c3cc(NC(=O)c4ccnc(C(F)(F)F)c4)ccc3C)cc(C)n2)ccn1 [Example 5] | 1000 to 10000 nM | ≤ 100 nM | ≤ 100 nM
2 | CC(=O)Nc1cc(-c2cc(-c3cc(NC(=O)c4ccnc(C(F)(F)F)c4)c(F)cc3C)cc(OC(C)C)n2)ccn1 [Example 10] | – | ≤ 100 nM | ≤ 100 nM
3 | Cc1ncc(NC(=O)c2cccc(C(F)(F)F)c2)cc1-c1cccc(-c2ccnc(NC(=O)CC#N)c2)c1 [Example 97] | 1000 to 10000 nM | ≤ 100 nM | ≤ 100 nM
4 | Cc1ccc(NC(=O)c2ccnc(C(C)(C)C#N)c2)cc1-c1ccnc(-c2ccnc3c2CC(=O)N3)n1 [Example 101] | 1000 to 10000 nM | ≤ 100 nM | 100 to 500 nM
5 | Cc1ncc(NC(=O)c2ccnc(C(C)(C)C#N)c2)cc1-c1cccc(-c2ccnc3c2CC(=O)N3)c1 [Example 105] | 1000 to 10000 nM | ≤ 100 nM | 100 to 500 nM
6 | Cc1ccc(NC(=O)c2ccnc(C(C)(C)C#N)c2)cc1-c1cccc(-c2ncnc3c2CC(=O)N3)c1 [Example 109] | 1000 to 10000 nM | ≤ 100 nM | ≤ 100 nM
7 | Cc1ncc(NC(=O)c2ccnc(C(C)(C)C#N)c2)cc1-c1cccc(-c2ncnc3c2CC(=O)N3)c1 [Example 110] | 1000 to 10000 nM | ≤ 100 nM | 500 to 1000 nM
8 | CC(=O)Nc1cc(-c2cc(-c3cc(NC(=O)c4ccnc(C(C)(C)C#N)c4)ccc3C)cn(C)c2=O)ccn1 [Example 113] | 1000 to 10000 nM | ≤ 100 nM | 100 to 500 nM
9 | CC(=O)Nc1cc(-c2cccc(-c3cc(NC(=O)c4ccnc(C(F)(F)F)c4)c(F)cc3C)c2)ncn1 [Example 114] | 1000 to 10000 nM | ≤ 100 nM | ≤ 100 nM
10 | Cc1ccc(NC(=O)c2ccnc(C(F)F)c2)cc1-c1cncc(-c2ccnc(NC(=O)C3CC3)c2)n1 [Example 117] | 1000 to 10000 nM | ≤ 100 nM | ≤ 100 nM

Continued, in another order:

Row | IC50 (Miapaca-2 cells) | IC50 [1] | Compound | IC50 (WM3928 cells)
11 | 1000 to 10000 nM | ≤ 100 nM | CC(=O)Nc1cc(-c2nccc(-c3cc(NC(=O)c4ccnc(C(C)(C)C#N)c4)ccc3C)n2)ccn1 [Example 118] | ≤ 100 nM
12 | 1000 to 10000 nM | ≤ 100 nM | Cc1ccc(NC(=O)c2ccnc(C(F)(F)F)c2)cc1-c1cncc(-c2ccnc(NC=O)c2)n1 [Example 123] | 100 to 500 nM
13 | 1000 to 10000 nM | ≤ 100 nM | CC(=O)Nc1nccc(-c2cccc(-c3cc(NC(=O)c4ccnc(C(F)(F)F)c4)ccc3C)c2)c1C#N [Example 132] | 100 to 500 nM
14 | 500 to 1000 nM | ≤ 100 nM | CC(=O)Nc1cc(-c2cncc(-c3cc(NC(=O)c4ccnc(C(C)(C)C#N)c4)ccc3C)n2)ccn1 [Example 140] | ≤ 100 nM
15 | 1000 to 10000 nM | ≤ 100 nM | CC(=O)Nc1cc(-c2cncc(-c3cc(NC(=O)c4ccnc(C5CC5)c4)ccc3C)n2)ccn1 [Example 145] | ≤ 100 nM
16 | 1000 to 10000 nM | ≤ 100 nM | CC(=O)Nc1cc(-c2cncc(-c3cc(NC(=O)c4ccnc(C5(C#N)CC5)c4)ccc3C)n2)ccn1 [Example 146] | ≤ 100 nM
17 | 1000 to 10000 nM | ≤ 100 nM | Cc1ccc(NC(=O)c2ccnc(C(C)(C)C#N)c2)cc1-c1cncc(-c2ccnc(C(=O)NC3CC3)c2)n1 [Example 148] | 500 to 1000 nM
18 | 1000 to 10000 nM | ≤ 100 nM | CC(=O)Nc1cc(-c2nccc(-c3cc(NC(=O)c4cccc(C(C)(C)C#N)c4)ccc3C)n2)ccn1 [Example 150] | ≤ 100 nM
19 | 1000 to 10000 nM | ≤ 100 nM | CC(=O)Nc1cc(-c2nccc(-c3cc(NC(=O)c4ccnc(C5(C#N)CC5)c4)ccc3C)n2)ccn1 [Example 151] | ≤ 100 nM
20 | 1000 to 10000 nM | ≤ 100 nM | CC(=O)Nc1cc(-c2nccc(-c3cc(NC(=O)c4ccnc(C5CC5)c4)ccc3C)n2)ccn1 [Example 152] | ≤ 100 nM
21 | 1000 to 10000 nM | ≤ 100 nM | Cc1ccc(NC(=O)c2ccnc(C(C)(C)C#N)c2)cc1-c1cncc(-c2ccnc(NC(=O)CC#N)c2)n1 [Example 154] | ≤ 100 nM
